Assay [1] concerns the target PIK3CA (human) (UniProt P42336). Description: Inhibition of PIK3CA Kinase Activity.
Assay [2] has the same target. The experiment in a line: Inhibition of A2780 Cell Proliferation.

Results on 47 compounds are retold here after the Kinase Knowledgebase extract (Sharma et al. 2016).

What is called IC50 is the midpoint of a concentration-inhibition curve. Low readings indicate higher potency, high ones lower potency. As a reminder, the EC50 is the concentration needed to bring the measured effect to its halfway point. High values mean a need for much substance, low ones an effect from little substance.

PIK3CA (human), sequence (P42336 whole entry, looked up): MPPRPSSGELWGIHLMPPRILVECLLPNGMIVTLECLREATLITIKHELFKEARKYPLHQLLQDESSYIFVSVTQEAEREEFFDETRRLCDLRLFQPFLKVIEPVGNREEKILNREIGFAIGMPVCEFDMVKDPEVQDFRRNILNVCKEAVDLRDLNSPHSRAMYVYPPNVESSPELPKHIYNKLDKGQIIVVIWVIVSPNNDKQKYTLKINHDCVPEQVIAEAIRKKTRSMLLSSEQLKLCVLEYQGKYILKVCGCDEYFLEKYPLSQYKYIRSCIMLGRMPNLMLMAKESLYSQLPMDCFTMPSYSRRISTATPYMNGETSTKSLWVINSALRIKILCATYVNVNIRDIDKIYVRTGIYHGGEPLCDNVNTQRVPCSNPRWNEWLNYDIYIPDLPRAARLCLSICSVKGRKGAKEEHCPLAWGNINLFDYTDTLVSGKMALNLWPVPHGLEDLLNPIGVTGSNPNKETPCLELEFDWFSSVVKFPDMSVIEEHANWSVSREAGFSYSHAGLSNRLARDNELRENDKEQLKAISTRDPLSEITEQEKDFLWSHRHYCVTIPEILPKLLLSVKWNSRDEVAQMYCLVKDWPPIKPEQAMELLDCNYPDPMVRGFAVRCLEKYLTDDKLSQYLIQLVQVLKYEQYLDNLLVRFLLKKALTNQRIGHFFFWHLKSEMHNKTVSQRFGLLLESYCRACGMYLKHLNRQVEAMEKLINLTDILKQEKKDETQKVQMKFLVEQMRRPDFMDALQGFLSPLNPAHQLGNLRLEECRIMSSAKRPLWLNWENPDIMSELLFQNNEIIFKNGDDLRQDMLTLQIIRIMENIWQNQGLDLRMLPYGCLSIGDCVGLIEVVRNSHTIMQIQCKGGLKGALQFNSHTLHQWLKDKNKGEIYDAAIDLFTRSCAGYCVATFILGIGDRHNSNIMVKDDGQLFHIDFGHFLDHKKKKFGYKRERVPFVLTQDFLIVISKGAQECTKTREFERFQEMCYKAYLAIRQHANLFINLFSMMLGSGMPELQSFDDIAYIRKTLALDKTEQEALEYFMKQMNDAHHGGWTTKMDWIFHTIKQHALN

On to `CC(C)(C)OC(=O)N1CCCCC1CCC(=O)Nc1cn2nc(-c3cnc(N)c(C(F)(F)F)c3)ccc2n1` (centres undefined), for which the IC50 against PIK3CA (human) [1] was less than 1000 nM. Also, the EC50 at PIK3CA (human) [2] is less than 10000 nM.

`CC(=O)Nc1cn2nc(-c3cnc(N)c(Cl)c3)ccc2n1` came in with an IC50 against PIK3CA (human) [1] of less than 1000 nM. In addition, the EC50 at PIK3CA (human) [2] was less than 1000 nM.

Compound `CC(=O)Nc1cn2cc(-c3cnc(N)c(C=NN(C)C)c3)ccc2n1` came in with an IC50 on PIK3CA (human) [1] of less than 1000 nM. The compound also had an EC50 on PIK3CA (human) [2] of less than 10000 nM. Regarding `Nc1ncc(-c2ccc3nc(NC(=O)C4CNC4)cn3n2)cc1Cl`, the IC50 at PIK3CA (human) [1] was less than 1000 nM. Further, the EC50 at PIK3CA (human) [2] is less than 25000 nM.

`Nc1ccc(-c2ccc3nc(NC(=O)OCCN4CCCCC4)sc3c2)cn1` registered an IC50 against PIK3CA (human) [1] of less than 1000 nM. As for `CNCC(=O)Nc1cn2nc(-c3cnc(N)c(C(F)(F)F)c3)ccc2n1`, the IC50 against PIK3CA (human) [1] was less than 1000 nM. Also, the EC50 on PIK3CA (human) [2] was less than 1000 nM. `CCN(CC)Cc1cc(-c2ccc3nc(NC(C)=O)cn3n2)cnc1N`: the IC50 against PIK3CA (human) [1] was less than 1000 nM. The compound also displayed an EC50 on PIK3CA (human) [2] of less than 10000 nM. Taken in the same sequence, the figures for `NCCC(=O)Nc1cn2nc(-c3cnc(N)c(C(F)(F)F)c3)ccc2n1` were less than 1000 nM and less than 10000 nM. Take `COCCOc1nc(-c2ccc3nc(NC(C)=O)cn3n2)cnc1N`: at PIK3CA (human) [2], the EC50 is less than 10000 nM. Consider `CC(=O)Nc1cn2cc(-c3cnc(N)cc3C(F)(F)F)ccc2n1`, for which, on PIK3CA (human) [1], the IC50 was less than 10000 nM. Turning to `Nc1ncc(-c2ccc3nc(NC(=O)c4cccc(-c5nn[nH]n5)c4)cn3c2)cc1C(F)(F)F`, on PIK3CA (human) [1], the IC50 was less than 1000 nM. The compound `CC(=O)Nc1cn2nc(-c3cnc(N)c(OCC(F)(F)F)n3)ccc2n1` had an EC50 on PIK3CA (human) [2] of less than 10000 nM.

In the case of `Nc1ncc(-c2ccc3nc(NC(=O)N4CCCC4c4nccs4)cn3c2)cc1C(F)(F)F` (centres undefined), the IC50 on PIK3CA (human) [1] is less than 1000 nM. Same read-out and setting: the same measure for `Nc1ncc(-c2ccc3nc(NC(=O)C4CCC(=O)N4)cn3c2)cc1C(F)(F)F` (centres undefined): less than 1000 nM. As to `Nc1ncc(-c2ccc3nc(NC(=O)[C@@H]4CCCCN4)cn3c2)cc1C(F)(F)F`, the EC50 on PIK3CA (human) [2] is less than 10000 nM. At PIK3CA (human) [1], `COc1ccccc1C1CCCN1C(=O)Nc1cn2cc(-c3cnc(N)c(C(F)(F)F)c3)ccc2n1` (centres undefined) came in with an IC50 of less than 1000 nM. Still for that read-out and setting: the same measure for `CC(=O)Nc1cn2cc(-c3cnc(N)c(Oc4ccc(N5CCN(C(C)C)CC5)cc4)n3)ccc2n1`: less than 1000 nM. As to `CCN1CCC(Oc2nc(-c3ccc4nc(NC(C)=O)cn4c3)cnc2N)CC1`, the EC50 at PIK3CA (human) [2] was less than 10000 nM. Still for that read-out and setting: the same measure for `CC(C)(C)OC(=O)N1CCC1C(=O)Nc1cn2nc(-c3cnc(N)c(C(F)(F)F)c3)ccc2n1` (centres undefined): less than 25000 nM. Compound `Nc1ncc(-c2ccc3nc(NC(=O)N4CCCC4Cc4ccccn4)cn3c2)cc1C(F)(F)F` (centres undefined) yielded an IC50 on PIK3CA (human) [1] of less than 1000 nM. `CC(=O)Nc1cn2cc(-c3cnc(N)c(OC(F)F)c3)ccc2n1` showed an IC50 on PIK3CA (human) [1] of less than 1000 nM.

On to `Nc1ncc(-c2ccc3nc(NC(=O)[C@@H](O)CCC(=O)O)cn3c2)cc1C(F)(F)F`, for which the IC50 against PIK3CA (human) [1] was less than 1000 nM. With `CC(C)C(=O)Nc1cn2cc(-c3cnc(N)c(C(F)(F)F)c3)ccc2n1`, the EC50 at PIK3CA (human) [2] is less than 25000 nM. In turn, `Nc1ncc(-c2ccc3nc(NC(=O)[C@@H]4CCC(=O)O4)cn3c2)cc1C(F)(F)F` yielded an IC50 at PIK3CA (human) [1] of less than 1000 nM. `CC(=O)Nc1cn2cc(-c3cnc(N)c(OC4CCNCC4)n3)ccc2n1`: the EC50 on PIK3CA (human) [2] was less than 25000 nM. Turning to `Nc1ncc(-c2ccc3nc(NC(=O)N4CCC[C@H]4C(=O)O)cn3c2)cc1C(F)(F)F`, the IC50 at PIK3CA (human) [1] was less than 10000 nM. As for `CC(=O)Nc1cn2nc(-c3cnc(N)c(-c4ccccc4Cl)c3)ccc2n1`, the IC50 on PIK3CA (human) [1] is less than 1000 nM. `CNC(=O)[C@@H]1CCCN1C(=O)Nc1cn2cc(-c3cnc(N)c(C(F)(F)F)c3)ccc2n1` had an EC50 at PIK3CA (human) [2] of less than 25000 nM. In the case of `CC(=O)Nc1nc2ccc(-c3ccc(NC4CCNCC4)nc3)cc2s1`, on PIK3CA (human) [1], the IC50 is less than 1000 nM. In turn, `CC(=O)Nc1cn2cc(-c3cnc(N)c(S(=O)(=O)N4CCC(Oc5ccc(F)cc5)CC4)c3)ccc2n1` came in with an IC50 at PIK3CA (human) [1] of less than 1000 nM. Turning to `CC(=O)Nc1nc2ccc(-c3cnc(N)c(C(F)(F)F)c3)cn2c1C(C)=O`, the IC50 at PIK3CA (human) [1] is less than 10000 nM.

Turning to `N#CN=C(N)NCCCC(=O)Nc1cn2nc(-c3cnc(N)c(C(F)(F)F)c3)ccc2n1`, the IC50 at PIK3CA (human) [1] is less than 1000 nM.

In turn, `CC(=O)Nc1cn2cc(-c3cnc(N)c(Oc4cccc(F)c4)n3)cc(F)c2n1` had an IC50 against PIK3CA (human) [1] of less than 1000 nM. The same measure, in the same setting: the same measure for `Nc1cccc(C(=O)Nc2nc3ccc(-c4cnc(N)c(C(F)(F)F)c4)cc3s2)n1`: less than 10000 nM; for `Nc1ncc(-c2ccc3nc(NC(=O)N4CCCC4c4ccco4)cn3c2)cc1C(F)(F)F` (centres undefined): less than 1000 nM; for `CC(=O)Nc1nc2ccc(-c3ccc(NC4CCOCC4)nc3)cc2s1`: less than 1000 nM. On the same count and under the same terms, the same measure for `CCN(CC)CCCc1c(NC(C)=O)nc2ccc(-c3cnc(N)c(C(F)(F)F)c3)cn12`: less than 10000 nM; for `CC(=O)Nc1cn2cc(-c3cnc(N)nc3N)ccc2n1`: less than 10000 nM; for `CC(=O)Nc1cn2c(-c3cnc(N)c(C(F)(F)F)c3)c(-c3cnc(N)c(C(F)(F)F)c3)ccc2n1`: no less than 25000 nM. As for `CC(=O)N1CCCC[C@H]1C(=O)Nc1cn2cc(-c3cnc(N)c(C(F)(F)F)c3)ccc2n1`, on PIK3CA (human) [2], the EC50 is less than 25000 nM. Regarding `CC(=O)Nc1cn2cc(-c3cnc(N)c(C(F)(F)F)c3)cc(C)c2n1`, at PIK3CA (human) [1], the IC50 is no less than 25000 nM.

`Nc1ncc(-c2ccc3nc(NC(=O)C4CCCC(=O)N4)cn3c2)cc1C(F)(F)F` (centres undefined) registered an IC50 against PIK3CA (human) [1] of less than 1000 nM. `CC(=O)Nc1cn2cc(-c3cnc(N)c(O[C@@H](C)C(F)(F)F)n3)cc(F)c2n1` displayed an IC50 against PIK3CA (human) [1] of less than 1000 nM. `CC(=O)N1CCCC[C@@H]1C(=O)Nc1cn2cc(-c3cnc(N)c(C(F)(F)F)c3)ccc2n1` registered an IC50 against PIK3CA (human) [1] of less than 10000 nM. In turn, `Nc1cc(C(=O)Nc2nc3ccc(-c4cnc(N)c(C(F)(F)F)c4)cc3s2)ccn1` returned an IC50 against PIK3CA (human) [1] of less than 1000 nM. `Nc1ncc(-c2ccc3nc(NC(=O)C4CCC(=O)NC4)cn3c2)cc1C(F)(F)F` (centres undefined): on PIK3CA (human) [1], the IC50 is less than 1000 nM. The same measure, in the same setting: the same measure for `Nc1ncc(-c2ccc3nc(NC(=O)[C@H]4CCC(=O)O4)cn3c2)cc1C(F)(F)F`: less than 1000 nM.
